Measured values: the NIST ThermoML archive (doi:10.1016/j.tca.2014.11.008)
± gives the expanded uncertainty stated by the source.

Settings: Crystal; visual observation

Normal melting temperature: 138.70 ± 1.3 °C
Structure (SMILES): O=C(O)c1ccsc1 [β-thiophenecarboxylic acid]
